This is an account of results in ChEMBL document CHEMBL1139489, “Design and NMR characterization of active analogues of compstatin containing non-natural amino acids” (J Med Chem, 2005).

As a reminder, the IC50 is the concentration that gives 50% inhibition.

Structures are written as SMILES. Positions of bridges follow the written chain, without caps; N, C: chain ends. Non-standard residues stand in square brackets, D forms with d. Residues, ends and D or L forms follow the SMILES beside them. Abu = CC[C@H](N)C(=O)O

The target in this experiment is Complement C3 (Homo sapiens, UniProt P01024). Description: Inhibitory concentration for human complement component C3 activation.
Sequence of Complement C3 (P01024 23-667 limits assumed): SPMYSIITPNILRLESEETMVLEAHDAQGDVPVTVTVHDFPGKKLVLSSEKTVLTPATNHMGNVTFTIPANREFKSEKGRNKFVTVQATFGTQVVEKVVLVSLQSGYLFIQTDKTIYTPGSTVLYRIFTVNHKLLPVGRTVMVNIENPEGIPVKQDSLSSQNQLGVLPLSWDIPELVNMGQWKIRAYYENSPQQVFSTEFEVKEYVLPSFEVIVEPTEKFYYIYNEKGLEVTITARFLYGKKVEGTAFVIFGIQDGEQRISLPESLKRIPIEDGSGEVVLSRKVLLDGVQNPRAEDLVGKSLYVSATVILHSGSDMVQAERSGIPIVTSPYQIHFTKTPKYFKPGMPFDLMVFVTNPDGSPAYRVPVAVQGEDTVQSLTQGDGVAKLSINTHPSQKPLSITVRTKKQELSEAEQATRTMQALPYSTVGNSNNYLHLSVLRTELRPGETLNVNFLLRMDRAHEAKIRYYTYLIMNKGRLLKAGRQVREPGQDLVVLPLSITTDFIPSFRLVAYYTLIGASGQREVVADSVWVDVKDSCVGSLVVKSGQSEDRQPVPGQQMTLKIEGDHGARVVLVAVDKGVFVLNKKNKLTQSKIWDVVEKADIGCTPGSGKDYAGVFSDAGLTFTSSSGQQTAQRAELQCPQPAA
Sequence of Complement C3 (P01024 672-1663 limits assumed): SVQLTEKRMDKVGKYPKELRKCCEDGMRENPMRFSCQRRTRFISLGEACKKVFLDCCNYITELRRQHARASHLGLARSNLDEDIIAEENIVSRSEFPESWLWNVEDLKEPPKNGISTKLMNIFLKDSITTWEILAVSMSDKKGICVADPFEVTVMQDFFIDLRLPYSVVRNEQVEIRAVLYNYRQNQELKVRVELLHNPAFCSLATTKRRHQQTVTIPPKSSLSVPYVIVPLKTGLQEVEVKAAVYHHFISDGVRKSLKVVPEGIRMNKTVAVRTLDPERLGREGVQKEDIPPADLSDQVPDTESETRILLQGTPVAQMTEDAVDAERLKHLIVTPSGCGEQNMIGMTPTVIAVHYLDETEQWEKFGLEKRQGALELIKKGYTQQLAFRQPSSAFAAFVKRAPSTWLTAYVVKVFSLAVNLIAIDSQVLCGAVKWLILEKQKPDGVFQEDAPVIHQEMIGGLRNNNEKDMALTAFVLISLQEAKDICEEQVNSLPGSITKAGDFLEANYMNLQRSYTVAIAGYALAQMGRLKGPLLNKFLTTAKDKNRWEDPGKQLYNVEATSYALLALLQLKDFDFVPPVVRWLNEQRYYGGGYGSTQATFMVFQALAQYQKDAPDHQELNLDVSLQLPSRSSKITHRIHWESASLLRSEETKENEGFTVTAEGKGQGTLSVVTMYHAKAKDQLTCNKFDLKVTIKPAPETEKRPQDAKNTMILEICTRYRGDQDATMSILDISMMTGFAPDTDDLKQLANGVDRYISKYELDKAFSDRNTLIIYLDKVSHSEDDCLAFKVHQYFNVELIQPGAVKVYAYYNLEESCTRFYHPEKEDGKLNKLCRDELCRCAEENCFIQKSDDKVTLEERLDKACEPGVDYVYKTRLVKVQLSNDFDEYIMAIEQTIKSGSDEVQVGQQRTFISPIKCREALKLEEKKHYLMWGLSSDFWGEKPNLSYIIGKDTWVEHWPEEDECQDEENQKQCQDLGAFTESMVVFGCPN
For the compound `CC[C@H](C)[C@H](NC(C)=O)C(=O)N[C@H]1CSSC[C@@H](C(=O)N[C@H](C(N)=O)[C@@H](C)O)NC(=O)[C@H](CCCNC(=N)N)NC(=O)[C@H](Cc2c[nH]cn2)NC(=O)[C@H](Cc2c[nH]cn2)NC(=O)CNC(=O)[C@H](Cc2c[nH]c3ccccc23)NC(=O)[C@H](CC(=O)O)NC(=O)[C@H](CCC(N)=O)NC(=O)[C@H](C(C)C)NC(=O)[C@H](C(C)C)NC1=O`, the midpoint of inhibition, the IC50, lay at 32 µM.
The figure for `CC[C@H](C)[C@H](NC(C)=O)C(=O)N[C@H]1CSSC[C@@H](C(=O)N[C@H](C(N)=O)[C@@H](C)O)NC(=O)[C@H](CCCN=C(N)N)NC(=O)[C@H](Cc2c[nH]cn2)NC(=O)[C@H](C)NC(=O)CNC(=O)[C@H](Cc2c[nH]c3ccccc23)NC(=O)[C@H](CC(=O)O)NC(=O)[C@H](CCC(N)=O)NC(=O)[C@H](C2Cc3ccccc3C2)NC(=O)[C@H](C(C)C)NC1=O` is 1.4 µM; for `CC[C@H](C)[C@H](NC(=O)[C@@H]1CSSC[C@H](NC(=O)[C@@H](NC(C)=O)[C@@H](C)CC)C(=O)N[C@@H](C(C)C)C(=O)N[C@@H](Cc2ccc(OP(=O)(O)O)cc2)C(=O)N[C@@H](CCC(N)=O)C(=O)N[C@@H](CC(=O)O)C(=O)N[C@@H](Cc2c[nH]c3ccccc23)C(=O)NCC(=O)N[C@@H](C)C(=O)N[C@@H](Cc2c[nH]cn2)C(=O)N[C@@H](CCCN=C(N)N)C(=O)N1)C(N)=O` it is 9.6 µM; for `CC[C@@H]1NC(=O)CNC(=O)[C@H](Cc2c[nH]c3ccccc23)NC(=O)[C@H](CC(=O)O)NC(=O)[C@H](CCC(N)=O)NC(=O)[C@H](Cc2c[nH]c3ccccc23)NC(=O)[C@H](C(C)C)NC(=O)[C@@H](NC(=O)[C@@H](NC(C)=O)[C@@H](C)CC)CSSC[C@@H](C(=O)N[C@H](C(N)=O)[C@@H](C)O)NC(=O)[C@H](CCCN=C(N)N)NC(=O)[C@H](Cc2c[nH]cn2)NC1=O` (Ac-ICVWQDWG[Abu]HRCT-NH2; disulfide 2-12) it is 1.5 µM.
As to `CC[C@H](C)[C@H](NC(C)=O)C(=O)N[C@H]1CSSC[C@@H](C(=O)N[C@H](C(N)=O)[C@@H](C)O)NC(=O)[C@H](CCCNC(=N)N)NC(=O)[C@H](Cc2cnc[nH]2)NC(=O)[C@H](Cc2cnc[nH]2)NC(=O)CNC(=O)[C@H](Cc2c[nH]c3ccccc23)NC(=O)[C@H](CC(=O)O)NC(=O)[C@H](CCC(N)=O)NC(=O)[C@H]([C@@H](C)O)NC(=O)[C@H](C(C)C)NC1=O`, the IC50 was 68.3 µM.
The figure for `CC[C@H](C)[C@H](NC(C)=O)C(=O)N[C@H]1CSSC[C@@H](C(=O)N[C@H](C(=O)O)[C@@H](C)O)NC(=O)[C@H](CCCN=C(N)N)NC(=O)[C@H](Cc2c[nH]cn2)NC(=O)[C@H](C)NC(=O)CNC(=O)[C@H](Cc2c[nH]c3ccccc23)NC(=O)[C@H](CC(=O)O)NC(=O)[C@H](CCC(N)=O)NC(=O)[C@H](Cc2csc3ccccc23)NC(=O)[C@H](C(C)C)NC1=O` is 0.8 µM; for `CC[C@H](C)[C@H](NC(C)=O)C(=O)N[C@H]1CSSC[C@@H](C(=O)N[C@H](C(=O)O)[C@@H](C)O)NC(=O)[C@H](CCCN=C(N)N)NC(=O)[C@H](Cc2c[nH]cn2)NC(=O)[C@H](C)NC(=O)CNC(=O)[C@H](Cc2c[nH]c3ccccc23)NC(=O)[C@H](CC(=O)O)NC(=O)[C@H](CCC(N)=O)NC(=O)[C@H](Cc2ccc(C(=O)c3ccccc3)cc2)NC(=O)[C@H](C(C)C)NC1=O` it is 1.1 µM; for `CC[C@H](C)[C@H](NC(C)=O)C(=O)N[C@H]1CSSC[C@@H](C(=O)N[C@H](C(N)=O)[C@@H](C)O)NC(=O)[C@H](CCCNC(=N)N)NC(=O)[C@H](Cc2cnc[nH]2)NC(=O)[C@H](Cc2cnc[nH]2)NC(=O)CNC(=O)[C@H](Cc2c[nH]c3ccccc23)NC(=O)[C@H](CC(=O)O)NC(=O)[C@H](CCC(N)=O)NC(=O)[C@H](Cc2cnc[nH]2)NC(=O)[C@H](C(C)C)NC1=O` it is 10.5 µM.
In turn, `CC[C@H](C)[C@H](NC(C)=O)C(=O)N[C@H]1CSSC[C@@H](C(=O)N[C@H](C(=O)O)[C@@H](C)O)NC(=O)[C@H](CCCNC(=N)N)NC(=O)[C@H](Cc2cnc[nH]2)NC(=O)[C@H](C)NC(=O)CNC(=O)[C@H](Cc2c[nH]c3ccccc23)NC(=O)[C@H](CC(=O)O)NC(=O)[C@H](CCC(N)=O)NC(=O)[C@H](C2Cc3ccccc3C2)NC(=O)[C@H](C(C)C)NC1=O` had a half-inhibitory concentration (IC50) of 1.5 µM.
In turn, `CC[C@H](C)[C@H](NC(C)=O)C(=O)N[C@H]1CSSC[C@@H](C(=O)N[C@H](C(N)=O)[C@@H](C)O)NC(=O)[C@H](CCCN=C(N)N)NC(=O)[C@H](Cc2c[nH]cn2)NC(=O)[C@H](Cc2c[nH]cn2)NC(=O)CNC(=O)[C@H](Cc2c[nH]c3ccccc23)NC(=O)[C@H](CC(=O)O)NC(=O)[C@H](CCC(N)=O)NC(=O)[C@H](CO)NC(=O)[C@H](C(C)C)NC1=O` returned an IC50 of 50.9 µM.
Under `CC[C@H](C)[C@H](NC(C)=O)C(=O)N[C@H]1CSSC[C@@H](C(=O)N[C@H](C(=O)O)[C@@H](C)O)NC(=O)[C@H](CCCNC(=N)N)NC(=O)[C@H](Cc2cnc[nH]2)NC(=O)[C@H](C)NC(=O)CNC(=O)[C@H](Cc2c[nH]c3ccccc23)NC(=O)[C@H](CC(=O)O)NC(=O)[C@H](CCC(N)=O)NC(=O)[C@H](Cc2ccc3ccccc3c2)NC(=O)[C@H](C(C)C)NC1=O` stands 1.4 µM; under `CC[C@H](C)[C@H](NC(C)=O)C(=O)N[C@H]1CSSC[C@@H](C(=O)N[C@H](C(N)=O)[C@@H](C)O)NC(=O)[C@H](CCCNC(=N)N)NC(=O)[C@H](Cc2cnc[nH]2)NC(=O)[C@H](Cc2cnc[nH]2)NC(=O)CNC(=O)[C@H](Cc2c[nH]c3ccccc23)NC(=O)[C@H](CC(=O)O)NC(=O)[C@H](CCC(N)=O)NC(=O)[C@H](Cc2c[nH]c3ccccc23)NC(=O)[C@H](C(C)C)NC1=O`, 2.2 µM.
For the compound `CC[C@H](C)[C@H](NC(C)=O)C(=O)N[C@H]1CSSC[C@@H](C(=O)N[C@H](C(N)=O)[C@@H](C)O)NC(=O)[C@H](CCCNC(=N)N)NC(=O)[C@H](Cc2cnc[nH]2)NC(=O)[C@H](C)NC(=O)CNC(=O)[C@H](Cc2c[nH]c3ccccc23)NC(=O)[C@H](CC(=O)O)NC(=O)[C@H](CCC(N)=O)NC(=O)[C@H](Cc2ccc(C(=O)c3ccccc3)cc2)NC(=O)[C@H](C(C)C)NC1=O`, 0.6 µM corresponded to half-maximal inhibition (IC50).
The figure for `CC[C@H](C)[C@H](NC(C)=O)C(=O)N[C@H]1CSSC[C@@H](C(=O)N[C@H](C(=O)O)[C@@H](C)O)NC(=O)[C@H](CCCN=C(N)N)NC(=O)[C@H](Cc2c[nH]cn2)NC(=O)[C@H](C)NC(=O)CNC(=O)[C@H](Cc2c[nH]c3ccccc23)NC(=O)[C@H](CC(=O)O)NC(=O)[C@H](CCC(N)=O)NC(=O)[C@H](CC2CCCCC2)NC(=O)[C@H](C(C)C)NC1=O` is 47.8 µM; for `CC[C@H](C)[C@H](NC(C)=O)C(=O)N[C@H]1CSSC[C@@H](C(=O)N[C@H](C(N)=O)[C@@H](C)O)NC(=O)[C@H](CCCN=C(N)N)NC(=O)[C@H](Cc2c[nH]cn2)NC(=O)[C@H](Cc2c[nH]cn2)NC(=O)CNC(=O)[C@H](Cc2c[nH]c3ccccc23)NC(=O)[C@H](CC(=O)O)NC(=O)[C@H](CCC(N)=O)NC(=O)[C@H](Cc2ccccc2)NC(=O)[C@H](C(C)C)NC1=O` it is 10.2 µM.
Regarding `CC[C@H](C)[C@H](NC(C)=O)C(=O)N[C@H]1CSSC[C@@H](C(=O)N[C@H](C(=O)O)[C@@H](C)O)NC(=O)[C@H](CCCN=C(N)N)NC(=O)[C@H](Cc2c[nH]cn2)NC(=O)[C@H](C)NC(=O)CNC(=O)[C@H](Cc2c[nH]c3ccccc23)NC(=O)[C@H](CC(=O)O)NC(=O)[C@H](CCC(N)=O)NC(=O)[C@H](CC2CNc3ccccc32)NC(=O)[C@H](C(C)C)NC1=O` (stereo partly drawn), the 50% inhibitory concentration (IC50) is 10.2 µM.
In turn, `CC[C@H](C)[C@H](NC(C)=O)C(=O)N[C@H]1CSSC[C@@H](C(=O)N[C@H](C(N)=O)[C@@H](C)O)NC(=O)[C@H](CCCNC(=N)N)NC(=O)[C@H](Cc2cnc[nH]2)NC(=O)[C@H](C)NC(=O)CNC(=O)[C@H](Cc2c[nH]c3ccccc23)NC(=O)[C@H](CC(=O)O)NC(=O)[C@H](CCC(N)=O)NC(=O)[C@H](C(C)C)NC(=O)[C@H](C(C)C)NC1=O` gave an IC50 of 12.4 µM.
Under `CC[C@H](C)[C@H](NC(C)=O)C(=O)N[C@H]1CSSC[C@@H](C(N)=O)NC(=O)[C@H](CCCN=C(N)N)NC(=O)[C@H](Cc2c[nH]cn2)NC(=O)[C@H](Cc2c[nH]cn2)NC(=O)CNC(=O)[C@@H](Cc2c[nH]c3ccccc23)NC(=O)[C@H](CC(=O)O)NC(=O)[C@H](CCC(N)=O)NC(=O)[C@H](C(C)C)NC(=O)[C@H](C(C)C)NC1=O` stands over 1000 µM.
Under `CC[C@H](C)[C@H](NC(C)=O)C(=O)N[C@H]1CSSC[C@@H](C(=O)N[C@H](C(N)=O)[C@@H](C)O)NC(=O)[C@H](CCCN=C(N)N)NC(=O)[C@H](Cc2c[nH]cn2)NC(=O)[C@H](C)NC(=O)CNC(=O)[C@H](Cc2c[nH]c3ccccc23)NC(=O)[C@H](CC(=O)O)NC(=O)[C@H](CCC(N)=O)NC(=O)[C@H](Cc2ccc(O)cc2)NC(=O)[C@H](C(C)C)NC1=O` stands 3.8 µM; under `CC[C@H](C)[C@H](NC(=O)[C@@H]1CSSC[C@H](NC(=O)[C@@H](NC(C)=O)[C@@H](C)CC)C(=O)N[C@@H](C(C)C)C(=O)N[C@H](Cc2c[nH]c3ccccc23)C(=O)N[C@@H](CCC(N)=O)C(=O)N[C@@H](CC(=O)O)C(=O)N[C@@H](Cc2c[nH]c3ccccc23)C(=O)NCC(=O)N[C@@H](C)C(=O)N[C@@H](Cc2c[nH]cn2)C(=O)N[C@@H](CCCN=C(N)N)C(=O)N1)C(N)=O`, over 1000 µM; under `CC[C@H](C)[C@H](NC(C)=O)C(=O)N[C@H]1CSSC[C@@H](C(N)=O)NC(=O)[C@H](CCCN=C(N)N)NC(=O)[C@H](Cc2c[nH]cn2)NC(=O)[C@H](Cc2c[nH]cn2)NC(=O)CNC(=O)[C@H](Cc2c[nH]c3ccccc23)NC(=O)[C@H](CC(=O)O)NC(=O)[C@@H](CCC(N)=O)NC(=O)[C@H](C(C)C)NC(=O)[C@H](C(C)C)NC1=O`, over 1000 µM.
The compound `CC[C@H](C)[C@H](NC(C)=O)C(=O)N[C@H]1CSSC[C@@H](C(=O)N[C@H](C(N)=O)[C@@H](C)O)NC(=O)[C@H](CCCN=C(N)N)NC(=O)[C@H](Cc2c[nH]cn2)NC(=O)[C@H](C)NC(=O)CNC(=O)[C@H](Cc2c[nH]c3ccccc23)NC(=O)[C@H](CC(=O)O)NC(=O)[C@H](CCC(N)=O)NC(=O)[C@H](Cc2csc3ccccc23)NC(=O)[C@H](C(C)C)NC1=O` displayed an IC50 of 0.8 µM.
The figure for `CC[C@H](C)[C@H](NC(C)=O)C(=O)N[C@H]1CSSC[C@@H](C(N)=O)NC(=O)[C@H](CCCNC(=N)N)NC(=O)[C@H](Cc2cnc[nH]2)NC(=O)[C@H](Cc2cnc[nH]2)NC(=O)CNC(=O)[C@H](Cc2c[nH]c3ccccc23)NC(=O)[C@@H](CC(=O)O)NC(=O)[C@H](CCC(N)=O)NC(=O)[C@H](C(C)C)NC(=O)[C@H](C(C)C)NC1=O` is over 1000 µM.
